Measurements taken from US9474780B2, “GIP and GLP-1 co-agonist compounds” (Eli Lilly and Company, priority 2015, dated 2016).
Several values for one entry are separate records, joined by “and”; a condition that tells them apart may be missing. Equal entries are not always repeated. Numbered stars: 1 amine (or outer) side, 2 acyl side, 3 side chain; on linkers, the order of the positions; unused ones are H or OH. Square brackets hold non-standard residues; d marks the D form. Side chains are listed from the residue outwards. Peptide text beside a SMILES is read from it. * marks the point of attachment. C18 diacid = O=C(O)CCCCCCCCCCCCCCCCC(=O)*; γGlu = O=C(O)[C@H](CCC(=O)[*:2])N[*:1]; 1Nal = N[C@@H](Cc1cccc2ccccc12)C(=O)O; AEEA = NCCOCCOCC(=O)O; Aib = CC(C)(N)C(=O)O

Legend:
human GLP-1R [1] = biological target: T1, human GLP-1R (Homo sapiens, UniProt P43220); assay type: binding; details: for Molar ratio of hGLP-1R/hGIP-R: normalized by factor 4.53 from native GIP and GLP-1 binding; for Absolute ratio of hGLP-1R/hGIP-R: ratio of Ki values
T1 construct: expressed in transfected cells; host or cells: 293HEK, Hygromycin-selected; crude plasma membranes

human GLP-1R [2] = biological target: T1, human GLP-1R; assay: Functional hGLP-1R cAMP assay in HEK-293 clonal cells; assay type: cell-based; details: HEK293; percent of maximal response of hGLP-1(7-36)NH2
mouse islets = assay: Mouse islet insulin secretion; assay type: cell-based; details: read-out: Mouse islet insulin secretion Mean ED50
Method: To assess action of compounds of the present invention in a system representing physiological GLP-1R and GIP-R expression levels insulin secretion, compounds are tested for effects on insulin secretion from wild-type rodent islets.
After common bile duct cannulation in male C57B1/6 mice (22-26 g) or male Sprague-Dawley rats (approx. 250 g), the pancreas is distended with Hank's buffer (3 ml for mice or 10 ml for rats, containing 2% BSA and 0.75 mg/ml Clzyme collagenase (VitaCyte). Subsequently, tissues are digested in Hank's buffer at 37° C. for 11-13 minutes (mice) or 14-16 minutes for rat pancreata. Purified islets (Histopaque-1100 gradient [Sigma-Aldrich], […] at 750× gravity) are cultured overnight in RPMI-1640 medium (Invitrogen) containing 10% FBS, 100 U/ml penicillin and 100 μg/ml streptomycin, and preconditioned by starvation in Earle's Balanced Salt Solution (EBSS) supplemented with 0.1% BSA and 2.8 mM glucose. Subsequently, islets are incubated in EBSS (Invitrogen) supplemented with 0.1% BSA, 2.8-11.2 mM glucose and increasing levels of compound (6 batches of 4 islets/condition). GLP-1(7-36)amide (30 nM) is used as a positive control. Insulin is measured over 90 minutes in supernatant using the MSD Insulin Assay (Meso Scale, Gaithersburg, Md.).

[3] = Pharmacokinetics in cynomolgus monkeys; assay type: in vivo; details: cynomolgus monkey, plasma, single SC 0.2 mg/kg, male monkeys, n = 2; for AUC(0-inf): read-out: Mean AUC0-inf; for half-life: read-out: Mean T1/2 (converted); for Tmax: read-out: Mean Tmax
Procedure, shortened: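 Single 0.2 mg/kg dose, intravenous or subcutaneous, in 20 mM citrate buffer pH 7.0; blood sampled from 2 to 312 hours post-dose. Plasma extracted with N-butanol, reconstituted in 30% acetonitrile/0.1% formic acid and quantified by LC/MS on a C5 column with Q-Exactive detection.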

[4] = Rat in vivo insulin secretion following intravenous glucose (IVGTT); details: s.c. 16 hour prior to glucose
Method: Male Wistar rats (Harlan Labs, Indianapolis, Ind.) are randomized by body weight and dosed 1.5 ml/kg s.c. 16 hour prior to glucose administration and then fasted. Doses are vehicle, 0.1, 0.3, 1, 3 and 10 nmol/kg. Animals are weighed, and then anesthetized with sodium pentobarbital (Nembutal Sodium solution; Ovation Pharmaceuticals) dosed i.p. (65 mg/kg, 30 mg/ml). A time zero blood sample is collected into EDTA tubes after which glucose is administered ([…], 5 ml/kg). Blood samples are collected at 2, 4, 6, 10, 20, and 30 minutes post glucose. Plasma glucose levels are determined using a Hitachi analyzer (Roche) and plasma insulin is measured by the MSD insulin assay (Meso Scale, Gaithersburg, Md.).

[5] = Weight loss, body composition and hepatic steatosis in DIO mice; assay type: in vivo, mouse; details: for Blood Glucose: Day 15
Method: The effects on weight loss, body composition and hepatic steatosis in DIO mice for compounds of the present invention are evaluated in C57/BL6 DIO mice. […] Animals are individually housed in a temperature-controlled (24° C.) facility with a 12 hour light/dark cycle (lights on 22:00), and free access to food and water. […] Daily body weight and food intake are measured throughout the study. Absolute changes in body weight are calculated by subtracting the body weight of the same animal prior to the first injection of compound. […] On Day 15, blood glucose is measured with Accu-Chek glucometer (Roche) from tail vein blood and then animals may be sacrificed and livers removed and frozen. Liver triglycerides, determined from homogenates of livers collected at sacrifice, and plasma cholesterol are measured on a Hitachi Modular P clinical analyzer. Statistical comparisons between groups are done using one-way ANOVA followed by Dunnett's multiple comparison test. The ED50 for weight loss lowering is determined in GraphPad Prism using the non-linear fit tool.

Human GCGR = Human GCGR (Homo sapiens, UniProt P47871); assay: Functional hGCGR cAMP assay in HEK-293 clonal cells
human GIP-R = biological target: T2, human GIP-R (Homo sapiens, UniProt P48546); assay: Functional hGIP-R cAMP assay in HEK-293 clonal cells; details: HEK293, read-out: Human GIP-R Emax
T2 sequence (P48546 22-466): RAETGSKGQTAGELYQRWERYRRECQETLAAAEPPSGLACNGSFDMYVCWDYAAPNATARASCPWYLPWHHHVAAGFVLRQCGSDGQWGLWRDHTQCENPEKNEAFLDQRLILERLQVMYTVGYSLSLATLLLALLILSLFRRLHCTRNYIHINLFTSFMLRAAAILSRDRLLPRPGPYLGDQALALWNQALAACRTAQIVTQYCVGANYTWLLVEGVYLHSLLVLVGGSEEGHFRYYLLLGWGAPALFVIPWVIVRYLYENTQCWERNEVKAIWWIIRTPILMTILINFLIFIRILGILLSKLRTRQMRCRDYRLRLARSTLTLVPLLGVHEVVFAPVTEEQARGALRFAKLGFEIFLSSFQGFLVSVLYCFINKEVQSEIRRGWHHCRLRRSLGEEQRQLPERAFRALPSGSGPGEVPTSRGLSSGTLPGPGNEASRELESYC
Method: After an incubation of 60 minutes at room temperature, the resulting increase in intracellular cAMP is quantitatively determined using the CisBio cAMP Dynamic 2 HTRF Assay Kit (Bedford, Mass.). Briefly, cAMP levels within the cell are detected by adding the cAMP-d2 conjugate in cell lysis buffer (20 μl) followed by the antibody anti-cAMP-Eu^3+-Cryptate, also in cell lysis buffer (20 μl). The resulting competitive assay is incubated for at least 60 minutes at room temperature, then detected using a PerkinElmer Envision® instrument with excitation at 320 nm and emission at 665 nm and 620 nm Envision units (emission at 665 nm/620 nm*10,000) are inversely proportional to the amount of cAMP present and are converted to nM cAMP per well using a cAMP standard curve. […] A relative EC50 value and percent top (Emax) is derived by non-linear regression analysis using the percent maximal response versus the concentration of the compound of the present invention, fitted to a four-parameter logistic equation.

T1 sequence (P43220 24-463): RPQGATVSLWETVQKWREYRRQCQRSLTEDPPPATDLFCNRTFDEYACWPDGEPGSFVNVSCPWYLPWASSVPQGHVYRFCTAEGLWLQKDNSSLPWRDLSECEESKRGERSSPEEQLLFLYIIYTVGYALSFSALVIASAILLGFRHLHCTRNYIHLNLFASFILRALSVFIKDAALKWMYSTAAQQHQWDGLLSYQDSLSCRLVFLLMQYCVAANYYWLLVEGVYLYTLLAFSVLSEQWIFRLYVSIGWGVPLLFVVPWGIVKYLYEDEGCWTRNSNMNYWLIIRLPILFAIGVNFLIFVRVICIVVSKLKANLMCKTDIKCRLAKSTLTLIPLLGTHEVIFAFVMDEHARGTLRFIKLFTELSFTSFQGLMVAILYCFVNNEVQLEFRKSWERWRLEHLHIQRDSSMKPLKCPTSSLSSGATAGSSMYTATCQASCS
Sequence of Human GCGR (P47871 26-477): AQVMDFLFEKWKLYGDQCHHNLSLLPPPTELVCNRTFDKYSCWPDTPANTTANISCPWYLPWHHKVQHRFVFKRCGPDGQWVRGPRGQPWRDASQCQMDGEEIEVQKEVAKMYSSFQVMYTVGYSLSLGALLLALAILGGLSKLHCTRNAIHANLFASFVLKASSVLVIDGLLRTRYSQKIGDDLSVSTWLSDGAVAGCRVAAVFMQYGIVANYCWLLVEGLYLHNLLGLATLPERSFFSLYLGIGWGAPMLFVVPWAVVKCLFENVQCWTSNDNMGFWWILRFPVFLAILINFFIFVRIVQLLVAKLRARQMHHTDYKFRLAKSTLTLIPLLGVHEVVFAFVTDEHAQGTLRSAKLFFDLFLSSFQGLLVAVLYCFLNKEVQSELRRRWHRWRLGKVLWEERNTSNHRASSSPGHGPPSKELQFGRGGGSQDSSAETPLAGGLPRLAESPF

Compound	Molar ratio of hGLP-1R/hGIP-R (human GLP-1R [1])	Absolute ratio of hGLP-1R/hGIP-R (human GLP-1R [1])	Emax (human GLP-1R [2]) [%]	EC50 (mouse islets) [nM]	CL/F [3] [mL/h/kg]	Cmax [3] [ng/mL]	AUC(0-inf) [3] [µg·h/mL]	half-life [3] [h]	Tmax [3] [h]	% max increase of insulin AUC [4]	% Change from starting body weight ([5]; Table 10, 10 nmol/kg) [%]	% Change from starting fat mass ([5]; Table 10, 10 nmol/kg) [%]	% Change from starting body weight ([5]; Table 10, 30 nmol/kg) [%]	% Change from starting fat mass ([5]; Table 10, 30 nmol/kg) [%]	% Change from starting body weight ([5]; Table 10, 100 nmol/kg) [%]	% Change from starting fat mass ([5]; Table 10, 100 nmol/kg) [%]	Plasma Cholesterol ([5]; Table 13, 10 nmol/kg) [mg/dL]	Blood Glucose ([5]; Table 13, 10 nmol/kg) [mg/dL]	Plasma Cholesterol ([5]; Table 13, 30 nmol/kg) [mg/dL]	Blood Glucose ([5]; Table 13, 30 nmol/kg) [mg/dL]	other results
CC[C@H](C)[C@H](NC(=O)[C@H](CC(C)C)NC(=O)[C@H](Cc1c[nH]c2ccccc12)NC(=O)[C@H](CCC(N)=O)NC(=O)[C@@H](NC(=O)[C@H](Cc1cccc2ccccc12)NC(=O)[C@H](C)NC(=O)[C@H](CCCCNC(=O)COCCOCCNC(=O)COCCOCCNC(=O)CC[C@H](NC(=O)CC[C@H](NC(=O)CCCCCCCCCCCCCCCCC(=O)O)C(=O)O)C(=O)O)NC(=O)[C@H](CCC(N)=O)NC(=O)[C@H](C)NC(=O)[C@@H](NC(=O)[C@H](CCCCN)NC(=O)[C@H](CC(=O)O)NC(=O)[C@H](CC(C)C)NC(=O)C(C)(C)NC(=O)[C@@H](NC(=O)[C@H](CO)NC(=O)[C@H](Cc1ccc(O)cc1)NC(=O)[C@H](CC(=O)O)NC(=O)[C@H](CO)NC(=O)[C@@H](NC(=O)[C@H](Cc1ccccc1)NC(=O)[C@@H](NC(=O)CNC(=O)[C@H](CCC(=O)O)NC(=O)C(C)(C)NC(=O)[C@@H](N)Cc1ccc(O)cc1)[C@@H](C)O)[C@@H](C)O)[C@@H](C)CC)[C@@H](C)CC)C(C)C)C(=O)N[C@@H](C)C(=O)NCC(=O)NCC(=O)N1CCC[C@H]1C(=O)N[C@@H](CO)C(=O)N[C@@H](CO)C(=O)NCC(=O)N[C@@H](C)C(=O)N1CCC[C@H]1C(=O)N1CCC[C@H]1C(=O)N1CCC[C@H]1C(=O)N[C@@H](CO)C(N)=O [Example 7] (H-Y[Aib]EGTFTSDYSI[Aib]LDKIAQK([AEEA-AEEA-γGlu-γGlu-C18 diacid])A[1Nal]VQWLIAGGPSSGAPPPS-NH2)	1.68	7.6	97.2 ± 3.4	11.3	1.5	2900	136	31	6	278 +/− 26% and 335 +/− 35%	−15.08 ± 1.22	−26.46 ± 2.31	−20.70 ± 1.95	−43.49 ± 5.47	−24.36 ± 2.06	−49.92 ± 3.40	161.8 ± 6.2	113.6 ± 4.16	153.6 ± 13.47	114.7 ± 4.70	Plasma Cholesterol ([5]; Table 13, 100 nmol/kg): 145.4 ± 9.48 mg/dL; Blood Glucose ([5]; Table 13, 100 nmol/kg): 114 ± 2.36 mg/dL; EC50 (Human GCGR): > 1000 nM; Emax (human GIP-R): 106 ± 3%
CC[C@H](C)[C@H](NC(=O)[C@H](CC(C)C)NC(=O)[C@H](Cc1c[nH]c2ccccc12)NC(=O)[C@H](CCC(N)=O)NC(=O)[C@@H](NC(=O)[C@H](Cc1cccc2ccccc12)NC(=O)[C@H](C)NC(=O)[C@H](CCCCNC(=O)COCCOCCNC(=O)COCCOCCNC(=O)CC[C@H](NC(=O)CCCCCCCCCCCCCCCCC(=O)O)C(=O)O)NC(=O)[C@H](CCC(N)=O)NC(=O)[C@H](C)NC(=O)[C@@H](NC(=O)[C@H](CCCCN)NC(=O)[C@H](CC(=O)O)NC(=O)[C@H](CC(C)C)NC(=O)C(C)(C)NC(=O)[C@@H](NC(=O)[C@H](CO)NC(=O)[C@H](Cc1ccc(O)cc1)NC(=O)[C@H](CC(=O)O)NC(=O)[C@H](CO)NC(=O)[C@@H](NC(=O)[C@H](Cc1ccccc1)NC(=O)[C@@H](NC(=O)CNC(=O)[C@H](CCC(=O)O)NC(=O)C(C)(C)NC(=O)[C@@H](N)Cc1ccc(O)cc1)[C@@H](C)O)[C@@H](C)O)[C@@H](C)CC)[C@@H](C)CC)C(C)C)C(=O)N[C@@H](C)C(=O)NCC(=O)NCC(=O)N1CCC[C@H]1C(=O)N[C@@H](CO)C(=O)N[C@@H](CO)C(=O)NCC(=O)N[C@@H](C)C(=O)N1CCC[C@H]1C(=O)N1CCC[C@H]1C(=O)N1CCC[C@H]1C(=O)N[C@@H](CO)C(N)=O [Example 6] (H-Y[Aib]EGTFTSDYSI[Aib]LDKIAQK([AEEA-AEEA-γGlu-C18 diacid])A[1Nal]VQWLIAGGPSSGAPPPS-NH2)	1.83	8.3	104 ± 4	51.4	2.8	2200	72.3	23	4	289 +/− 4%	−17.54 ± 1.17	−34.30 ± 1.20	−19.52 ± 1.18	−39.52 ± 3.18	−29.36 ± 2.62	−56.66 ± 4.96	167.8 ± 15.59	121.4 ± 2.74	159.8 ± 9.99	121.9 ± 6.65	ED50 for insulin, rat IVGTT [4]: 2.58 nmol/kg; % Change from starting body weight ([5]; Table 8, 10 nmol/kg): −15.31 ± 1.25 %; % Change from starting fat mass ([5]; Table 8, 10 nmol/kg): −24.75 ± 1.89 %; % Change from starting body weight ([5]; Table 8, 30 nmol/kg): −21.62 ± 0.92 %; % Change from starting fat mass ([5]; Table 8, 30 nmol/kg): −36.30 ± 2.47 %; % Change from starting body weight ([5]; Table 8, 100 nmol/kg): −33.95 ± 1.93 %; % Change from starting fat mass ([5]; Table 8, 100 nmol/kg): −64.64 ± 4.04 %; Plasma Cholesterol ([5]; Table 11, 10 nmol/kg): 198.4 ± 6.76 mg/dL; Plasma Triglycerides ([5]; Table 11, 10 nmol/kg): 20.78 ± 4.40 mg/dL; Blood Glucose ([5]; Table 11, 10 nmol/kg): 105.8 ± 2.10 mg/dL; Plasma Cholesterol ([5]; Table 11, 30 nmol/kg): 186.4 ± 17.04 mg/dL; Plasma Triglycerides ([5]; Table 11, 30 nmol/kg): 26.12 ± 6.85 mg/dL; Blood Glucose ([5]; Table 11, 30 nmol/kg): 100.1 ± 3.29 mg/dL; Plasma Cholesterol ([5]; Table 11, 100 nmol/kg): 151.4 ± 14.32 mg/dL; Plasma Triglycerides ([5]; Table 11, 100 nmol/kg): 17.26 ± 1.67 mg/dL; Blood Glucose ([5]; Table 11, 100 nmol/kg): 103.6 ± 3.20 mg/dL; Plasma Cholesterol ([5]; Table 13, 100 nmol/kg): 144.2 ± 7.12 mg/dL; Blood Glucose ([5]; Table 13, 100 nmol/kg): 116.1 ± 4.67 mg/dL; EC50 (Human GCGR): > 1000 nM; Emax (human GIP-R): 106 ± 3%
